Experiment [1] concerns the target T1, PBP4 (Staphylococcus aureus, UniProt P72355).
T1 sequence (P72355 25-431): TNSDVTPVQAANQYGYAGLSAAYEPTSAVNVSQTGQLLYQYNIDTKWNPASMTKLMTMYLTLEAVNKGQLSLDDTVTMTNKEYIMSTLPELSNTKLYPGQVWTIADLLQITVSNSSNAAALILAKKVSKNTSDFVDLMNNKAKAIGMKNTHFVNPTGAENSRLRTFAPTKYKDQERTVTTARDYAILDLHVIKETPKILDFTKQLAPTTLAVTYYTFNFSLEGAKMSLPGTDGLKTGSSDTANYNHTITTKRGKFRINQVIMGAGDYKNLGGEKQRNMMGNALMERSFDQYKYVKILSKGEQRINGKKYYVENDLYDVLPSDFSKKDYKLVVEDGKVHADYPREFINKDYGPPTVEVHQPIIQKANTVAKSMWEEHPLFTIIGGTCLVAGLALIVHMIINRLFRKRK
Nature of the experiment: fluorogenic D,D-transpeptidation assay with Rf470DL, dose-response. It is filed as biochemical.

Experiment [2] deals with T2, PBP4 (Staphylococcus aureus, UniProt A0A0H2WY27).
T2 sequence (A0A0H2WY27 25-431): T1 sequence (P72355 25-431) with L210H
Kind of experiment: Nitrocefin hydrolysis. It counts as biochemical.

Numbering of substitutions follows the chain as printed. pIC50: −log10 of the molar value.

The pIC50 is −log10 of the IC50, conventionally taken in molar units. Read a high pIC50 as a low IC50.

On to `CO[C@@]1(NC(=O)Cc2cccs2)C(=O)N2C(C(=O)O)=C(COC(N)=O)CS[C@@H]21` [Cefoxitin], for which the pIC50 against PBP4 [1] was around 5.63.
Regarding `O=C(Cc1cccs1)N[C@@H]1C(=O)N2C(C(=O)O)=C(/C=C/c3ccc([N+](=O)[O-])cc3[N+](=O)[O-])CS[C@H]12` [Nitrocefin], the “Nitrocefin hydrolysis (β-lactamase activity) competition assay” value at PBP4 [2] was “in the presence of Cefoxitin or Carbenicillin, Nitrocefin hydrolysis was strongly inhibited”.

These data come from PMC6444347 (Nature chemistry, 2019).
